Source: patent publication US9365830B2, “Agents and methods for inhibiting human pluripotent stem cell growth” (VIACYTE, INC., priority 2010, dated 2016)

Columns and labels:
[1] = test system: pancreatic endoderm differentiations of hESCs; experiment: Suspension aggregate differentiation to pancreatic endoderm after Stage 1 treatment, Q-PCR; type: cell-based, human; conditions: Stage 1 cultures treated with 0.1 μM Caffeic acid or 0.17 μM Ivermectin
Description: FIGS. 10A-10I are bar graphs showing the relative gene expression levels of OCT4 (FIG. 10A), MIXL (FIG. 10B), HNF1B (FIG. 10C), HNF4A (FIG. 10D), PAX4 (FIG. 10E), NGN3 (FIG. 10F), NKX2.2 (FIG. 10G), NKX6.1 (FIG. 10H), and PTF1A (FIG. 10I) after treatment of suspension aggregate cell cultures at Stages 1 with DMSO (Control), 0.1 μM Caffeic acid or 0.17 μM Ivermectin agents. Untreated control samples were collected at d0 and d1 (left panel). Treated samples were collected at d2, d3, d5, d7, d9, d11, and d13. The columns for each day of the treated samples are (from left to right): DMSO, Caffeic acid, and Ivermectin. The cultures were differentiated to the end of Stage 4. The results from an untreated, pancreatic endoderm differentiation are shown on the right, with samples collected on days 0, 1, 2, 5, 8, 10 and 14.
To further determine the effects of the above compounds (excluding those compounds that induced off-target differentiation), three selected compounds (chelerythrine chloride (FIGS. 5 & 6), caffeic acid and Ivermectin) were screened for effects on later stages of pancreatic differentiation, (such as Stages 2-5). Human ESCs were first differentiated through Stage 1 then to Stages 2 to 5 in suspension aggregate cultures similar to that above. Stage 1 cultures were treated with DMSO, caffeic acid or Ivermectin substantially as described above. Untreated control samples were collected at d0 (hESC) and d1 (FIG. 10, left panel), while treated samples were collected at days 2, 3, 5, 7, 9, 11 and 13 (FIG. 10 d2, d3, d5, d7, d9, d11 and d13 respectively). Gene expression levels in the collected samples were analyzed using Q-PCR and compared to the d0 (hESC) sample as well as qualified pancreatic endoderm (FIG. 10, right panel). The qualified pancreatic endoderm control consisted of about 50% pancreatic endoderm, about 46% endocrine cells and about 4% “other” cells as determined by flow cytometry. Neither caffeic acid nor Ivermectin affected survival, growth and/or proliferation of pancreatic endoderm differentiations. […] Typical gene expression levels for Stages 3, 4 and 5 cells were normal; for example, increased expression of NKX6.1 and PTF1A at Stage 4, pancreatic endoderm (FIGS. 10H and 10I), and of NGN3 and NKX2.2 at Stage 5, endocrine precursor and endocrine cells (FIGS. 10 F and 10G) was observed.

[2] = test system: undifferentiated hESCs growing in adherent culture; experiment: EC50 of cytotoxic effect on undifferentiated hESCs in adherent culture, real-time impedance assay; type: cell-based, human; conditions: undifferentiated hESCs, adherent culture, real-time impedance; read-out: EC50 concentrations for hES cells (cytotoxic effect)
Description: In summary, the final three (3) candidates identified from both the primary and secondary screens (EXAMPLE 1) and the full screen of the LOPAC1280™ collection (EXAMPLE 2) were Chelerythrine Chloride, Caffeic acid and Ivermectin. FIG. 11 lists the known or inferred mode(s) of action for these three compounds, as well as their structures. EC50 values for the respective cytotoxic effects on undifferentiated hESCs growing in adherent culture were determined using real-time impedance assays.
Depletion of OCT4-positive cells during Stage 1 differentiation was examined using the plating assay described above. Stage 1 differentiations of hES cells were treated from day 1 to 2 with the candidate compounds as described in Example 2 (chelerythrine chloride, caffeic acid and Ivermectin), at their EC50 concentrations for hES cells. Plated untreated and DMSO-treated aggregates were indistinguishable, and both contained discrete clusters of OCT4-positive cells. See FIG. 13A top and bottom panels for a DMSO treated example. The intensity of OCT4-positive staining in differentiating aggregate cell cultures treated with DMSO (control) was equivalent to undifferentiated hES cells.

[3] = test system: hESCs (BG02); experiment: Real-time impedance assay (RT-CES) for inhibitory and cytotoxic agents on hESCs; conditions: 10 μM compound added after about 24 hours, cultured about 5 more days; compared to DMSO control
Text: The foregoing 176 selected compounds from the complete LOPAC1280™ library were then used to screen human pluripotent stem cells, e.g., hESCs, and differentiating cultures during Stage 1 (definitive endoderm) using a real-time impedance assay (ACEA biosciences RT-CES system). The RT-CES system uses 96-well trays that contain embedded microsensors to monitor changes in electrical impedance, which is translated into a measure of cell index. Any overt alteration within a cell culture can be detected, including but not limited to cell proliferation, migration, cell spreading, apoptosis, differentiation and the like. […] An increase in the cell index indicates proliferation of the cells, for example, proliferation of the undifferentiated cells. […] See also FIG. 1. […] A “scallop” cell index is one which remains high due to a confluent culture of cells, but will go down and up (scallop) between daily feedings. Conversely, cells undergoing differentiation have distinctive patterns, such as peaks and troughs in the cell index, potentially indicative of an epithelial-to-mesenchymal transition, flattening, cell migration, apoptosis or similar differentiation and growth related changes.
Impedance Assay for Inhibitory and Cytotoxic Agents. Human pluripotent stem cells, e.g., 2×10^4 hESCs (BG02), were cultured in DC-HAIF, a heregulin-based defined media, with daily feeding in the impedance monitoring plates. After about 24 hours, and 10 μM of the selected LOPAC1280™ compound was added to each well (see arrowhead in FIGS. 3 A & B) and cultured for about an additional 5 days.

Molecule	Typical gene expression levels for Stages 3, 4 and 5 cells (NKX6.1, PTF1A, NGN3, NKX2.2) ([1]; Q-PCR d2-d13)	survival, growth and/or proliferation of pancreatic endoderm differentiations (pancreatic endoderm viability) ([1]; differentiated to end of Stage 4)	EC50 [2] [nM]	cell index (impedance); inhibitory or cytotoxic effect on the hESCs [3]
22, 23-dihydroavermectin B1a+22,23-dihydroavermectin B1b [Ivermectin]	normal	did not affect pancreatic endoderm viability	170	
CN(N=O)c1cc(O)ccc1O [Dephostatin]				significant decrease
N#C/C(=C\c1ccc(O)c(O)c1)C(=O)NCc1ccccc1 [Tyrphostin AG 490]				significant decrease
